Measurements published in patent publication US20050013853A1, “Anti-proliferative drugs” (priority 2000, published 2005).
Like-named read-outs stand apart in the source and are kept apart here.

Assays:
[1] = test system: HaCat cells; assay: Cell viability of HaCat keratinocytes, Neutral Red Staining; assay type: cell-based, human; conditions: for Responsiveness of HaCat cells (viability): comparison of thioridazine, doxorubicin, 5-FU, FIG. 3A; for Effect on viability of HaCat cells: 5-100 μM, 24 hr; for IC50: Homo sapiens, HaCaT, read-out: Mean IC50 in keratinocytes, HaCat
Protocol: (§1) In general, 10,000 cells/well were treated with drugs from different categories of psychotropic drugs.
(§2) The effect of the drugs was compared at equimolar concentrations to that of two commonly used anticancer agents (Doxorubicin and 5-fluorouracil (5-FU)).

[2] = test system: HaCat A5 cells; assay: Cell viability of HaCat A5 keratinocytes, Neutral Red Staining; assay type: cell-based, human; conditions: for Effect on viability of HaCat A5 cells: 5-100 μM, 24 hr
Protocol: as §1, §2

[3] = test system: TNF-α secretion from mouse splenocytes; assay: Con-A-induced TNF-α secretion from mouse splenocytes, ELISA; assay type: cell-based; conditions: 48 hours; for IC50: Mus musculus, Splenocyte, 2.5-20 μM, mean of three experiments
Protocol: Cells treated with Con-A alone served as the control (“Con-A”).
In particular, mouse splenocyte cells 1×10 (cells/well) were exposed, for 48 hours, to the different drugs and ConA and at the end of the experiment plates were centrifuged and supernatant collected for cytokine determination and TNF-α levels were determined in soups by ELISA. (R&D #DY410 Minnapolis USA)
(§3) As described above, cells were exposed to each drug for 48 hours.

[4] = test system: wild type B16 melanoma cells; assay: Cell viability of wild type B16 melanoma cells; assay type: cell-based; conditions: 24 hr, 10-100 μM
[5] = test system: MDR B16 melanoma cells; assay: Cell viability of MDR B16 melanoma cells; assay type: cell-based; conditions: 24 hr
Protocol: Specifically, the different drugs were applied for 24 hr to the cells (20,000/well) at concentrations of 10, 20, 30, 50, 75 and 100 μM.

[6] = test system: HaCat II-4RT cells; assay: Cell viability of HaCat II-4RT keratinocytes, Neutral Red Staining; assay type: cell-based, human; conditions: for Effect on viability of HaCat II4 cells: 5-100 μM, 24 hr
Protocol: as §1, §2

[7] = test system: IL-2 and INF-γ secretion from mouse splenocytes; assay: Con-A-induced splenocyte secretion of IL-2 and INF-γ; assay type: cell-based; conditions: 48 hours, 2.5-10 μM; FIG. 14
Protocol: (§4) In particular, cells 1×10^6 cells/well were exposed for 48 hours to each drug (2.5-10 μM).

[8] = test system: human lymphocytes; assay: PHA-induced human lymphocyte proliferation, Alamar blue; assay type: cell-based; conditions: PHA 2.5 μg/ml, 48 hr, 3 healthy volunteers
Protocol: Human lymphocytes were isolated from whole blood of 3 healthy volunteers. Lymphocyte proliferation was induced by exposure 1×10^6 cells/well to phytohemagglutinin (PHA) (2.5 μg/ml). Cell viability was assessed 48 hr post exposure to paroxetine (2.5-10.0 μM) using Alamar blue reagent (Wildflower, Santa Fe, N.M., USA) staining Nociari M M, Shalev A, Benias P , et al. A novel one-step highly sensitive fluorimetric assay to evaluate cell-mediated cytotoxicity. J. Immunol. Methods 213(2): 157-167, 1998.

[9] = test system: HaCat cells; assay: Apoptosis by Hoechst 33342 / propidium iodide fluorescence microscopy; assay type: cell-based, human; conditions: 20 μM, 24 hours
Protocol: In particular, HaCat cells (10,000/well) were exposed to the different drugs (20 μM) or to saline (control). Twenty four hours post exposure, the cells were co-stained with the DNA binding dyes, Hoechst 33342 (20 μg/ml) propidium iodide (PI) (10 μg/ml), for 5 min at room temperature. The cells were then examined using a fluorescence microscope with ultraviolet excitation at 340-380 nm. Typically, intact cells are detected by a blue Hoechst fluorescence while fragmented nuclear is detected by a red fluorescence, indicating cells undergoing apoptosis [Harel et al., Sensitivity of HaCat keratinocytes to diabetogenic toxins, Biochem. Pharmacol., 63:171-178, 2002].

[10] = test system: mouse splenocytes; assay: Con-A-induced mouse splenocyte proliferation, Alamar blue; assay type: cell-based; conditions: for Splenocyte proliferation: 48 hours
Protocol: The effect of several psychotropic drugs on the proliferation of Con-A-induced mouse splenocyte proliferation was examined. The specific drugs evaluated included, without being limited thereto, the bicyclic antidepressants paroxetine and sertraline.
In particular, mouse splenocytes were isolated from C57BL healthy female mice. […]
Cell viability was assessed 48 hr later using Alamar blue staining.
as §4, §3

[11] = test system: caspase-3 in human HaCaT cells; assay: Caspase-3 activation, fluorimetric Ac-DEVD-AMC method; assay type: cell-based; conditions: 4 hours, paroxetine 10-20 μM, sertraline 10-[…] μM
Protocol: An additional marker for apoptosis is the activation of caspase-3 (a key mediator implicated in apoptosis in mammalian cells belong to the asparate-specific cysteinyl proteases or caspases).
In the following assay caspase-3 activation was measured by an enzymatic fluorimetric method, using fluorigenic substrate (Ac-DEVD-AMC) (Biomol, PA, USA) which produces a blue fluorescence detected at a 360 nm wavelength. The fluorigenic moiety AMC is cleaved from the substrate in the presence of caspase-3 (and caspase-3-like enzymes), which results in appearance of a yellow-green fluorescence monitored by a fluorimeter at 460 nm. The amount of the yellow-green fluorescence is proportional to the activity of the caspase-3 in the cell extract sample.
[…]. […] Measurements were determined, after the 4 hr exposure, every 3 min during 45 min, after which a specific caspase 3 inhibitor DEVD-AMC-CHO (Alexis corp. Lausen Switzerland) was added to half of the samples and measurements continued for another 45 min as previously described (Garcia-Calvo M, Peterson E P, Leiting B, Ruel R, Nicholson D W, Thornberry N A: Inhibition of human caspases by peptide-based and macromolecular inhibitors. J Biol Chem, 27(49):32608-13, 1998).

[12] = test system: wild type B16 melanoma cells; assay: Effect on doxorubicin toxicity in wild type B16 melanoma cells; assay type: cell-based; conditions: clomipramine 10, […], 20 μM + doxorubicin 1, 2.5, 5 μM, 24 hr
[13] = test system: MDR B16 melanoma cells; assay: Sensitization of MDR B16 melanoma cells to doxorubicin; assay type: cell-based; conditions: 24 hr
[14] = 24 hr post-administration, Neutral Red, mean of several experiments

Compound: O=c1[nH]cc(F)c(=O)[nH]1 [5-FU, 5-fluorouracil]
- Responsiveness of HaCat cells (viability) [1]: resistant
- Responsiveness of HaCat A5 cells (viability) ([2]; comparison of thioridazine, doxorubicin, 5-FU, FIG. 3B): resistant

Compound: NCCC(Oc1ccc(C(F)(F)F)cc1)c1ccccc1 (stereo not shown) [norfluoxetine]
- Antiproliferative activity as compared to fluoxetine ([1]; viability of HaCat cells, FIG. 10): five times increased antiproliferative activity

Compound: C[C@@H]1C[C@H]2[C@@H]3CCC4=CC(=O)C=C[C@]4(C)[C@@]3(F)[C@@H](O)C[C@]2(C)[C@@]1(O)C(=O)CO [dexamethasone]
- IC50 [3]: 0.6 µM

Compound: CN1CCN(C2=Nc3cc(Cl)ccc3Nc3ccccc32)CC1 [Clozapine, clozapine]
- Viability of wild type B16 melanoma cells [4]: reduced in a dose dependent manner
- Viability of MDR B16 melanoma cells [5]: reduced in a dose dependent manner
- Effect on viability of HaCat cells [1]: effective in reducing viability
- Effect on viability of HaCat II4 cells [6]: effective in reducing viability
- Effect on viability of HaCat A5 cells [2]: effective in reducing viability

Compound: Fc1ccc([C@@H]2CCNC[C@H]2COc2ccc3c(c2)OCO3)cc1 [Paroxetine, paroxetine]
- Viability of wild type B16 melanoma cells [4]: capable of reducing cell viability
- Effect on viability of HaCat cells [1]: effective in reducing viability
- IC50 [1, 14]: 17.8 µM
- TNF-α secretion ([3]; 2.5-25 μM, FIG. 16): inhibited cell proliferation and TNF-α secretion in a dose dependent manner
- IC50 [3]: 2.5 µM
- Effect on viability of HaCat II4 cells [6]: effective in reducing viability
- Lymphocyte-induced cytokine secretion (IL-2, INF-γ) [7]: decrease in the lymphocyte-induced cytokine secretion
- Effect on viability of HaCat A5 cells [2]: effective in reducing viability
- IC50 [8]: 5 to 10 µM
- Red fluorescence of nuclei indicating apoptosis [9]: dramatic increase in red fluorescence of nuclei
- Splenocyte proliferation ([10]; 2.5-10 μM, FIG. 14): dose dependent decrease in splenocyte proliferation
- Splenocyte proliferation ([10]; 2.5-25 μM, FIG. 16): inhibited cell proliferation and TNF-α secretion in a dose dependent manner
- IC50 ([10]; Mus musculus, Splenocyte, 48 hr, 2.5-10 μM, C57BL mice): 2.5 to 5.5 µM
- Caspase-3 activity [11]: significant increase in caspase-3 activity

Compound: CN(C)CCCN1c2ccccc2CCc2ccc(Cl)cc21 [Clomipramine, clomipramine]
- Viability of wild type B16 melanoma cells [4]: capable of reducing cell viability
- Cell viability from control, in combination with doxorubicin [12]: less than 15%
- Effect on viability of HaCat cells [1]: effective in reducing viability
- Effect on viability of HaCat II4 cells [6]: effective in reducing viability
- Lymphocyte-induced cytokine secretion (IL-2, INF-γ) [7]: decrease in the lymphocyte-induced cytokine secretion
- Effect on viability of HaCat A5 cells [2]: effective in reducing viability
- Red fluorescence of nuclei indicating apoptosis [9]: dramatic increase in red fluorescence of nuclei
- Splenocyte proliferation ([10]; 2.5-10 μM, FIG. 14): dose dependent decrease in splenocyte proliferation
- Cell viability in combination with doxorubicin [13]: significantly reduced, in a dose dependant manner

Compound: COc1cccc2c1C(=O)c1c(O)c3c(c(O)c1C2=O)C[C@@](O)(C(=O)CO)C[C@@H]3O[C@H]1C[C@H](N)[C@H](O)[C@H](C)O1 [doxorubicin]
- Responsiveness of HaCat cells (viability) [1]: equimolar IC50 as for thioridazine

Compound: CN(C)CCCN1c2ccccc2CCc2ccccc21 [Imipramine, imipramine]
- Effect on viability of HaCat cells [1]: effective in reducing viability
- Effect on viability of HaCat II4 cells [6]: effective in reducing viability
- IC50 ([6]; Homo sapiens, HaCaT, 24 hr post-administration, Neutral Red, mean of several experiments, read-out: Mean IC50 in keratinocytes, HaCatII4RT): 48 µM
- Effect on viability of HaCat A5 cells [2]: effective in reducing viability
- IC50 ([2]; Homo sapiens, HaCaT, 24 hr post-administration, Neutral Red, mean of several experiments): 62 µM

Compound: CN[C@H]1CC[C@@H](c2ccc(Cl)c(Cl)c2)c2ccccc21 [Sertraline, sertraline]
- Caspase-3 activity [11]: significant increase in caspase-3 activity

Compound: CCOc1ccccc1OC(c1ccccc1)C1CNCCO1 (stereo not shown) [Reboxetine, reboxetine]
- IC50 ([1]; 24 h): > 100 µM

Compound: CNCCC(Oc1ccc(C(F)(F)F)cc1)c1ccccc1 (stereo not shown) [Fluoxetine, fluoxetine]
- Viability of wild type B16 melanoma cells [4]: capable of reducing cell viability, with fluoxetine being the most effective drug
- Effect on viability of HaCat cells [1]: effective in reducing viability
- Effect on viability of HaCat II4 cells [6]: effective in reducing viability
- Effect on viability of HaCat A5 cells [2]: effective in reducing viability

Compound: COc1ccc(C(CN(C)C)C2(O)CCCCC2)cc1 (stereo not shown) [Venlafaxine, venlafaxine]
- IC50 [1, 14]: > 100 µM

Compound: CSc1ccc2c(c1)N(CCC1CCCCN1C)c1ccccc1S2 (stereo not shown) [Thioridazine, thioridazine]
- Effect on viability of HaCat cells [1]: effective in reducing viability
- Effect on viability of HaCat II4 cells [6]: effective in reducing viability
- Effect on viability of HaCat A5 cells [2]: effective in reducing viability

Compound: CN(C)CCCC1(c2ccc(F)cc2)OCc2cc(C#N)ccc21 (stereo not shown) [Citalopram, citalopram]
- IC50 [1, 14]: > 100 µM
